Laboratory results published in US10563263B2, “Genetic polymorphisms associated with statin response and cardiovascular diseases, methods of detection and uses thereof” (CELERA CORPORATION, priority 2010, dated 2020).

System: CVD (CHD or stroke)
Assay: WOSCOPS: SNP by pravastatin treatment interaction, logistic regression (synergy index), CVD endpoint
Type: in vivo, human
Conditions: for OR (SNP x pravastatin treatment interaction): Imputed, WOSCOPS pravastatin vs placebo; for OR: WOSCOPS
Excerpt: CARE was a secondary prevention trial and WOSCOPS was a primary prevention trial.
The CHD endpoint was defined in the analyses herein of CARE as a composite endpoint of fatal CHD, definite non-fatal MI, or revascularization, and was defined in the analyses herein of WOSCOPS as a composite endpoint of death from CHD, nonfatal MI, or revascularization. In both the CARE and WOSCOPS analyses herein, the CVD endpoint was defined as a composite endpoint of CHD or stroke. […] Revascularization, which can include percutaneous transluminal coronary angioplasty (PTCA), stent placement, and coronary artery bypass graft (CABG), are medical interventions that indicate the presence of CHD.
Cohort and case-only study designs were used to identify SNPs associated with response to statin treatment.
For each SNP, a logistic regression model having treatment status as the dependent variable and SNP as the independent predictor variable was performed, with terms for age, sex and race included in the model as covariates. The anti-log of the regression coefficient corresponding to the SNP is an estimate of the synergy index (SI) (Davis et al., “Imputing gene-treatment interactions when the genotype distribution is unknown using case-only and putative placebo analyses-a new method for the Genetics of Hypertension Associated Treatment (GenHAT) study”, Statistics in Medicine 23: (2004), pages 2413-2427). The SI is a ratio of odds ratios: for example in the CARE and WOSCOPS studies, the SI represents the factor by which the odds-ratio of statin treatment, compared with placebo, among major homozygous individuals is multiplied by in order to obtain the odds-ratio of treatment vs. placebo among heterozygous individuals; and multiplied by a second time to obtain the odds-ratio of treatment vs. placebo in minor homozygous individuals. […] In a randomized clinical trial, genotype and treatment are independent by design.

For `CC[C@H](C)C(=O)O[C@H]1C[C@H](O)C=C2C=C[C@H](C)[C@H](CC[C@@H](O)C[C@@H](O)CC(=O)O)[C@H]21` [Pravastatin, pravastatin], the “OR (SNP x pravastatin treatment interaction)” value (SNP rs12820589, allele A1=G, model DOM) was 1.936, the “OR (SNP x pravastatin treatment interaction)” value (SNP rs12831292, allele A1=G, model ADD) was 0.6841 and the “OR (SNP x pravastatin treatment interaction)” value (SNP rs12831292, allele A1=G, model DOM) was 0.62. The “OR (SNP x pravastatin treatment interaction)” value (SNP rs13012636, allele A1=G, model REC) was 1.901, the “OR (SNP x pravastatin treatment interaction)” value (SNP rs13038146, allele A1=C, model ADD) was 1.407 and the “OR (SNP x pravastatin treatment interaction)” value (SNP rs13038146, allele A1=C, model REC) was 1.414. The “OR (SNP x pravastatin treatment interaction)” value (SNP rs13089860, allele A1=A, model DOM) was 0.6221, the “OR (SNP x pravastatin treatment interaction)” value (SNP rs13102419, allele A1=T, model REC) was 1.668 and the “OR (synergy index), WOSCOPS, Prava vs Placebo” value (SNP rs13121569 (A1 G, A2 A), dom model, CVD endpoint, Caseonly) was 0.78. The “OR (SNP x pravastatin treatment interaction)” value (SNP rs13194907, allele A1=A, model ADD) was 1.964, the “OR (SNP x pravastatin treatment interaction)” value (SNP rs13194907, allele A1=A, model DOM) was 2.136 and the “OR (SNP x pravastatin treatment interaction)” value (SNP rs13195745, allele A1=A, model ADD) was 1.964. For the same molecule, the “OR (SNP x pravastatin treatment interaction)” value (SNP rs13195745, allele A1=A, model DOM) was 2.136, the “OR (SNP x pravastatin treatment interaction)” value (SNP rs13265054, allele A1=T, model DOM) was 0.6754 and the “OR (SNP x pravastatin treatment interaction)” value (SNP rs13282131, allele A1=C, model ADD) was 1.415. The “OR (SNP x pravastatin treatment interaction)” value (SNP rs13282131, allele A1=C, model REC) was 1.595, the “OR (SNP x pravastatin treatment interaction)” value (SNP rs13387284, allele A1=A, model DOM) was 0.5278 and the “OR (SNP x pravastatin treatment interaction)” value (SNP rs13401462, allele A1=C, model DOM) was 2.137. The “OR (SNP x pravastatin treatment interaction)” value (SNP rs13409045, allele A1=T, model ADD) was 0.6931, the OR (marker rs208025, source caseonly, pravastatin vs placebo) was 1.52 and the OR (marker rs478859, source caseonly, pravastatin vs placebo) was 1.33. For the same molecule, the OR (marker rs623400, source caseonly, pravastatin vs placebo) was 0.62, the OR (marker rs675163, source caseonly, pravastatin vs placebo) was 0.71 and the OR (marker rs1536506, source caseonly, pravastatin vs placebo) was 1.43. The OR (marker rs1866386, source caseonly, pravastatin vs placebo) was 0.81, the OR (marker rs2869680, source caseonly, pravastatin vs placebo) was 0.70 and the OR (marker rs2880563, source caseonly, pravastatin vs placebo) was 1.51. The OR (marker rs4251580, source caseonly, pravastatin vs placebo) was 0.55, the OR (marker rs4689078, source caseonly, pravastatin vs placebo) was 1.45 and the OR (marker rs5764592, source caseonly, pravastatin vs placebo) was 1.87. The OR (marker rs6040760, source caseonly, pravastatin vs placebo) was 1.23, the OR (marker rs7623808, source caseonly, pravastatin vs placebo) was 4.22 and the OR (marker rs7915250, source caseonly, pravastatin vs placebo) was 0.81. It also gave an OR (marker rs10106852, source caseonly, pravastatin vs placebo) of 1.56, an OR (marker rs10460737, source caseonly, pravastatin vs placebo) of 0.10 and an OR (marker rs10817479, source caseonly, pravastatin vs placebo) of 1.37. It also gave an OR (marker rs12286877, source caseonly, pravastatin vs placebo) of 2.30, an OR (marker rs12608167, source caseonly, pravastatin vs placebo) of 0.66 and an OR (marker rs17310169, source caseonly, pravastatin vs placebo) of 0.81. For the same molecule, the OR (marker rs77638540, source caseonly, pravastatin vs placebo) was 0.68, the OR (rs198461 allele C DOM Imputed) was 0.4755 and the OR (rs208757 allele G ADD Imputed) was 1.353. The OR (rs208757 allele G DOM Imputed) was 1.453, the OR (rs331555, add, Caseonly, CVD, pravastatin vs placebo) was 0.77 and the OR (rs1076733, dom, Caseonly, CVD, pravastatin vs placebo) was 0.62. It also gave an OR (rs1182878, add, Caseonly, CVD, pravastatin vs placebo) of 0.75, an OR (rs1474396, dom, Caseonly, CVD, pravastatin vs placebo) of 1.73 and an OR (rs1782328 allele A ADD Imputed) of 0.5789. For the same molecule, the OR (rs1796337 allele T DOM Imputed) was 0.5422, the OR (rs1798083 allele C DOM Imputed) was 0.4733 and the OR (rs1798085 allele T DOM Imputed) was 0.4727. The OR (rs1798086 allele T DOM Imputed) was 0.4689, the OR (rs1798089 allele C REC Imputed) was 1.806 and the OR (rs1798090 allele C REC Imputed) was 1.806. For the same molecule, the OR (rs1832222 allele G DOM Imputed) was 1.351, the OR (rs1838104 allele A ADD Imputed) was 0.6393 and the OR (rs1868616 allele G ADD Imputed) was 0.7123. The OR (rs1874313 allele A DOM Imputed) was 0.6182.
